Assay results as given in PubChem BioAssay (NCI).
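Growth conditions: 96-well plates. Treatment: test compound, 48 hours, 5 concentrations. Analysis: linear interpolation between bracketing concentrations; unreached endpoints set to highest concentration. TGI denotes the concentration required for complete inhibition of growth.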

Assays:
Experiment in all cases: DTP human tumour cell line panel, 48 h
OVCAR-5 ovarian = tested on: OVCAR-5 ovarian
COLO 205 colon = tested on: COLO 205 colon
DMS 273 small cell lung = tested on: DMS 273 small cell lung
MOLT-4 leukemia = tested on: MOLT-4 leukemia
SK-MEL-28 melanoma = tested on: SK-MEL-28 melanoma
SNB-78 CNS = tested on: SNB-78 CNS
SF-268 CNS = tested on: SF-268 CNS
K-562 leukemia = tested on: K-562 leukemia
SNB-19 CNS = tested on: SNB-19 CNS
SNB-75 CNS = tested on: SNB-75 CNS
HCT-15 colon = tested on: HCT-15 colon
SN12C renal = tested on: SN12C renal
HOP-18 NSCLC = tested on: HOP-18 NSCLC
NCI-H226 lung = tested on: NCI-H226 lung
NCI-H23 lung = tested on: NCI-H23 lung
IGROV1 ovarian = tested on: IGROV1 ovarian
NCI-H522 lung = tested on: NCI-H522 lung
A549 NSCLC = tested on: A549 NSCLC
MCF7 breast = tested on: MCF7 breast
MDA-N = tested on: MDA-N
U251 CNS = tested on: U251 CNS
MALME-3M melanoma = tested on: MALME-3M melanoma
DMS 114 small cell lung = tested on: DMS 114 small cell lung
HT29 colon = tested on: HT29 colon
SK-MEL-5 melanoma = tested on: SK-MEL-5 melanoma
NCI-H460 lung = tested on: NCI-H460 lung
HOP-62 NSCLC = tested on: HOP-62 NSCLC
786-0 renal = tested on: 786-0 renal
HCC-2998 colon = tested on: HCC-2998 colon
CAKI-1 renal = tested on: CAKI-1 renal
HCT-116 colon = tested on: HCT-116 colon
UO-31 renal = tested on: UO-31 renal
M19-MEL melanoma = tested on: M19-MEL melanoma
RPMI-8226 leukemia = tested on: RPMI-8226 leukemia
SW-620 colon = tested on: SW-620 colon
BT-549 breast = tested on: BT-549 breast
HOP-92 NSCLC = tested on: HOP-92 NSCLC
DLD-1 colon = tested on: DLD-1 colon
RXF 393 renal = tested on: RXF 393 renal
HL-60(TB) leukemia = tested on: HL-60(TB) leukemia
MDA-MB-231 breast = tested on: MDA-MB-231 breast
PC-3 prostate = tested on: PC-3 prostate
KM20L2 colon = tested on: KM20L2 colon
A498 renal = tested on: A498 renal
UACC-62 melanoma = tested on: UACC-62 melanoma
OVCAR-4 ovarian = tested on: OVCAR-4 ovarian
TK-10 renal = tested on: TK-10 renal
KM12 colon = tested on: KM12 colon
EKVX NSCLC = tested on: EKVX NSCLC
HS 578T breast = tested on: HS 578T breast
OVCAR-8 ovarian = tested on: OVCAR-8 ovarian
SK-MEL-2 melanoma = tested on: SK-MEL-2 melanoma
MDA-MB-435 = tested on: MDA-MB-435
LXFL 529 NSCLC = tested on: LXFL 529 NSCLC
UACC-257 melanoma = tested on: UACC-257 melanoma
DU-145 prostate = tested on: DU-145 prostate
CCRF-CEM leukemia = tested on: CCRF-CEM leukemia
T-47D breast = tested on: T-47D breast
ACHN renal = tested on: ACHN renal
NCI/ADR-RES ovarian = tested on: NCI/ADR-RES ovarian
LOX IMVI melanoma = tested on: LOX IMVI melanoma
OVCAR-3 ovarian = tested on: OVCAR-3 ovarian
SF-539 CNS = tested on: SF-539 CNS
RXF-631 renal = tested on: RXF-631 renal
M14 melanoma = tested on: M14 melanoma
SK-OV-3 ovarian = tested on: SK-OV-3 ovarian
SR leukemia = tested on: SR leukemia
SF-295 CNS = tested on: SF-295 CNS
XF 498 CNS = tested on: XF 498 CNS

`NC(N)=NCCCS(=O)(=O)Nc1ccc(Nc2c3ccccc3nc3cc([N+](=O)[O-])ccc23)cc1` was tested, and the TGI (OVCAR-5 ovarian) was > 74.1 µM, the TGI (COLO 205 colon) was 56.2 µM and the TGI (DMS 273 small cell lung) was 37.2 µM. The TGI (MOLT-4 leukemia) was 43.6 µM, the TGI (SK-MEL-28 melanoma) was 40.7 µM and the TGI (SNB-78 CNS) was > 63.5 µM. For the same molecule, the TGI (SF-268 CNS) was 35.6 µM, the TGI (K-562 leukemia) was > 89.7 µM and the TGI (SNB-19 CNS) was 28.8 µM. The TGI (SNB-75 CNS) was 45.8 µM, the TGI (HCT-15 colon) was > 100 µM and the TGI (SN12C renal) was 60.9 µM. It also gave a TGI (HOP-18 NSCLC) of 58.7 µM, a TGI (NCI-H226 lung) of 45.5 µM and a TGI (NCI-H23 lung) of 35.6 µM. It also gave a TGI (IGROV1 ovarian) of 79.5 µM, a TGI (NCI-H522 lung) of 61 µM and a TGI (A549 NSCLC) of 36.6 µM. It also gave a TGI (MCF7 breast) of 87.7 µM, a TGI (MDA-N) of 81.1 µM and a TGI (U251 CNS) of 29.5 µM. The TGI (MALME-3M melanoma) was 37.2 µM, the TGI (DMS 114 small cell lung) was 28.8 µM and the TGI (HT29 colon) was 55 µM. The TGI (SK-MEL-5 melanoma) was 45.3 µM, the TGI (NCI-H460 lung) was 33 µM and the TGI (HOP-62 NSCLC) was 39.3 µM. For the same molecule, the TGI (786-0 renal) was 53.2 µM, the TGI (HCC-2998 colon) was 44.1 µM and the TGI (CAKI-1 renal) was > 93.5 µM. For the same molecule, the TGI (HCT-116 colon) was 63.5 µM, the TGI (UO-31 renal) was > 100 µM and the TGI (M19-MEL melanoma) was 24.1 µM. It also gave a TGI (RPMI-8226 leukemia) of 66.6 µM, a TGI (SW-620 colon) of 58 µM and a TGI (BT-549 breast) of 94.4 µM. For the same molecule, the TGI (HOP-92 NSCLC) was 28.5 µM, the TGI (DLD-1 colon) was > 93.4 µM and the TGI (RXF 393 renal) was 67.2 µM. For the same molecule, the TGI (HL-60(TB) leukemia) was > 82.4 µM, the TGI (MDA-MB-231 breast) was 66.5 µM and the TGI (PC-3 prostate) was 67.9 µM. The TGI (KM20L2 colon) was > 76.2 µM, the TGI (A498 renal) was 65.8 µM and the TGI (UACC-62 melanoma) was 51.7 µM. The TGI (OVCAR-4 ovarian) was 48.9 µM, the TGI (TK-10 renal) was > 84.5 µM and the TGI (KM12 colon) was 51.4 µM. For the same molecule, the TGI (EKVX NSCLC) was 70.7 µM, the TGI (HS 578T breast) was 50.9 µM and the TGI (OVCAR-8 ovarian) was > 92.9 µM. The TGI (SK-MEL-2 melanoma) was 66.1 µM, the TGI (MDA-MB-435) was > 100 µM and the TGI (LXFL 529 NSCLC) was 29.9 µM. For the same molecule, the TGI (UACC-257 melanoma) was 68.1 µM, the TGI (DU-145 prostate) was 25.2 µM and the TGI (CCRF-CEM leukemia) was > 74.9 µM. The TGI (T-47D breast) was 11.4 µM, the TGI (ACHN renal) was 63 µM and the TGI (NCI/ADR-RES ovarian) was 58.8 µM. For the same molecule, the TGI (LOX IMVI melanoma) was > 75.7 µM, the TGI (OVCAR-3 ovarian) was 66.4 µM and the TGI (SF-539 CNS) was 52.1 µM. The TGI (RXF-631 renal) was > 100 µM, the TGI (M14 melanoma) was > 87.2 µM and the TGI (SK-OV-3 ovarian) was 55.5 µM. The TGI (SR leukemia) was > 100 µM, the TGI (SF-295 CNS) was 59 µM and the TGI (XF 498 CNS) was 27.9 µM.
